# Results taken from US8148411B2, “2-hetarylthiazole-4-carboxamide derivatives, their preparation and use as pharmaceuticals” (Bayer Pharma Aktiengesellschaft, priority 2007, dated 2012).
# System: TLR7
# Assay: TLR-induced cytokine release in human peripheral blood mononuclear cells (PBMC), TNF-alpha by ELISA
# Format: cell-based
# Details: human PBMC incubated 18 hours with test substance in presence of TLR7 ligand; TNF-alpha in supernatant by ELISA; read-out: EC50 (TNF-α TLR7)
# Description: TLR-Induced Cytokine Release in Human “Peripheral Blood Mononuclear Cells” (PBMC)
# PBMCs isolated from human whole blood are stimulated using a TLR ligand.
# The cytokine determination is carried out by means of ELISA kits; a proliferation/cell metabolism determination is carried out using Alamar Blue.
# For the cell preparation, about 200 ml of blood are treated with an anticoagulant (e.g. citrate Monovettes). Per Leucosep tube, 15 ml of Histopaque (room temperature, RT) are poured in and forced downwards through the inserted frit by brief initial centrifugation (one minute at 1000×g, RT). 20 ml of blood are added to the tubes prepared in this way and centrifuged at 800×g for 15 minutes (RT). After centrifugation, the following layering results from the top to the bottom:
# plasma-PBMC-Histopaque-filter disc-Histopaque-erythrocytes and granulocytes. The supernatant plasma is aspirated. The PBMC are transferred together with the underlying Histopaque to a new 50 ml tube, the contents of two Leucosep tubes always being added to one 50 ml tube. The 50 ml tubes are then filled to 50 ml with PBS. This cell suspension is centrifuged at 300×g (RT) for 10 minutes.
# The liquid supernatant is tipped off and the cell pellet is resuspended with a little PBS and subsequently filled to 50 ml with PBS. This washing step is repeated twice. The resulting pellet is taken up in a defined volume of medium (with additives). For the testing of the substances, PBMC are incubated for 18 hours with titrated concentrations of the test substances, e.g. in the presence or absence of TLR7 or TLR9 ligands. On the next day, the supernatants are investigated for the content of TNF-alpha or other cyto- or chemokines by means of specific ELISA. The metabolic activity of the treated cells is determined with the aid of Alamar Blue.
row,Compound,EC50 [nM]
1,"Cn1ncc(NC(=O)c2csc(-c3ccncc3)n2)c1C(N)=O [Example 1.2, N-[5-(Aminocarbonyl)-1-methyl-1H-pyrazol-4-yl]-2-(4-pyridinyl)-4-thiazolecarboxamide]",2400
2,"NC(=O)c1ccccc1NC(=O)c1csc(-c2ccncc2)n1 [Example 1.3, N-[2-(Aminocarbonyl)phenyl]-2-(4-pyridinyl)-4-thiazolecarboxamide]",1300
3,"NC(=O)c1ncccc1NC(=O)c1csc(-c2cccnc2)n1 [Example 1.7, 3-[(2-Pyridin-3-ylthiazole-4-carbonyl)amino]pyridine-2-carboxamide]",1800
4,"Cc1ccc(C(N)=O)c(NC(=O)c2csc(-c3ccncc3)n2)c1 [Example 1.8, N-[2-(Aminocarbonyl)-5-methylphenyl]-(4-pyridinyl)-4-thiazolecarboxamide]",1100
5,"Cc1ccc(C(N)=O)c(NC(=O)c2csc(-c3cnccc3C(F)(F)F)n2)c1 [Example 1.11, N-[2-(Aminocarbonyl)-5-methylphenyl]-2-[4-(trifluoromethyl)-3-pyridinyl]-4-thiazolecarboxamide]",30000
6,"CC(C)(C)c1cc(NC(=O)c2csc(-c3cccnc3)n2)c(C(N)=O)s1 [Example 1.17, N-[2-(Aminocarbonyl)-5-(1,1-dimethylethyl)-3-thienyl]-2-(3-pyridinyl)-4-thiazolecarboxamide]",2600
7,"NC(=O)c1cc(F)ccc1NC(=O)c1csc(-c2cccnc2)n1 [Example 1.18, N-[2-(Aminocarbonyl)-4-fluorophenyl]-2-(3-pyridinyl)-4-thiazolecarboxamide]",1900
8,"NC(=O)c1ccncc1NC(=O)c1csc(-c2ccncc2)n1 [Example 1.22, 3-[(2-Pyridin-4-ylthiazole-4-carbonyl)amino]isonicotinamide]",7000
9,"Cc1ccc(C(N)=O)c(NC(=O)c2csc(-c3ccc(N)nc3)n2)c1 [Example 2.4, N-[2-(Aminocarbonyl)-5-methylphenyl]-2-(6-aminopyridin-3-yl)thiazole-4-carboxamide]",1300

# Continued by falling EC50, values first:
row,EC50 [nM],Compound
1,30000,"NC(=O)c1cc(Cl)ccc1NC(=O)c1csc(-c2cccnc2)n1 [Example 1.6, N-[2-(Aminocarbonyl)-4-chlorophenyl]-2-(3-pyridinyl)-4-thiazolecarboxamide]"
2,5200,"NC(=O)c1ncccc1NC(=O)c1csc(-c2ccncc2)n1 [Example 1.21, 3-[(2-Pyridin-4-ylthiazole-4-carbonyl)amino]pyridine-2-carboxamide]"
3,4100,"Cc1ccc(C(N)=O)c(NC(=O)c2csc(-c3cccnc3)n2)c1 [Example 1.5, N-[2-(Aminocarbonyl)-5-methylphenyl]-2-(3-pyridinyl)-4-thiazolecarboxamide]"
4,900,"NC(=O)c1ccccc1NC(=O)c1csc(-c2cccnc2)n1 [Example 1.1, N-[2-(Aminocarbonyl)phenyl]-2-(3-pyridinyl)-4-thiazolecarboxamide]"
5,490,"Cc1ccc(NC(=O)c2csc(-c3cccnc3)n2)c(C(N)=O)c1 [Example 1.4, N-[2-(Aminocarbonyl)-4-methylphenyl]-2-(3-pyridinyl)-4-thiazolecarboxamide]"
